Measurements reported in paper PMC7456637, “Pharmacokinetic characterization of fluorocoxib D, a cyclooxygenase-2-targeted optical imaging agent for detection of cancer” (Journal of Biomedical Optics, 2020).
Several values for one entry are separate records, joined by “and”; a condition that tells them apart may be missing. Equal values may be shown once.

Assays:
[1] = system: COX-2-expressing head and neck cancer (HNC); test: Fluorocoxib D uptake in HNC mass during rhinoscopy in a client-owned dog; format: in vivo; details: for Uptake of fluorocoxib D in HNC during rhinoscopy: 1 mg/kg i.v. over 20 min, half hour uptake, client-owned dog, chondrosarcoma
Protocol: The owners signed a consent form for enrolling their dog for our proof-of principal study. A nine-year old female-spayed Golden Retriever dog weighing 35 kg was presented for an acute onset of unilateral right-sided epistaxis of 5-day duration. Previous medical history included a grade 2 soft tissue sarcoma with a high mitotic index that was completely excised from her ventral neck ∼2 years prior with no signs of regrowth. Rhinoscopy and biopsy procedure in the dog was performed by board-certified veterinary internal specialists (SO and JS) in an accordance with a standard veterinary care and the UT IACUC-approved protocol. Fluorocoxib D was administrated i.v. 1 mg/kg over 20 min using a catheter, followed by a half hour uptake before initiation of rhinoscopy procedure. Rhinoscopy was used to obtain biopsy samples guided by uptaken fluorocoxib D in the computed tomography (CT)-identified head and neck cancer (HNC) mass. Rhinoscopy and biopsy procedures in dog were performed under general anesthesia using a 2.7-mm, 30-deg, 18-cm rigid scope (Karl Storz Veterinary Endoscopy) attached to a TRICAM PDD as described previously[38] using a custom-designed filter system for detection of fluorocoxib D ( λem 645±50 nm ). After complete recovery from the rhinoscopic examination and anesthesia in a quiet room, the client-owned dog was returned to its owners. The heat map images with adjusted hue saturation of fluorocoxib D signal (pink color) from normal tissue (upper three images) and HNC tumor (lower three images) obtained during rhinoscopy were generated using Adobe Photoshop CC2019 software ([…]) in order to better visualize the tumor and its margins. […]
The biopsy samples obtained during rhinoscopy procedures in dogs were formalin-fixed and paraffin-embedded and sectioned at 7-μm thin sections for histology and immunohistochemistry analysis for detection of COX-2 and Ki67 expression as described previously.[38] […] The tissue specimens were evaluated using a Leitz DMRB microscope. […]

[2] = Pilot safety study: complete blood count (CBC); format: in vivo, dog
Protocol: The animal studies were performed in the accordance with the University of Tennessee Institutional Animal Care and Use Committee (UT IACUC)-approved protocols and in an accordance with NIH guidelines. Individually housed research healthy female beagle dogs (Covance Research Product) with weights of 6.7 to 10.3 kg were used to assess the safety and pharmacokinetic parameters of fluorocoxib D administrated a dose of 1 mg/kg over 20 min intravenously (i.v.).
For single dose safety evaluation studies, we administrated fluorocoxib D at 1 mg/kg , i.v. using a preplaced cephalic or saphenous vein catheter over 20 min to six healthy research dogs following protocol as described previously.[38] Briefly, physical examinations for signs of potential drug toxicity were performed before, during, and daily for 3 days after fluorocoxib D administration. Physical assessment included auscultation of heart and lungs, abdominal palpation, body temperature, appetite, attitude, activity levels monitoring, and other health-related events. Hypersensitivity was evaluated by direct observation of each dog during treatment for clinical signs of an allergic reaction (facial swelling, flushing, urticaria, dyspnea, scratching, and changes of heart rates). […] Laboratory evaluations of blood and urine were carried out before and 3 days after fluorocoxib D administration to monitor signs of toxicity. Blood (up to 3 ml) was collected into ethylenediaminetetraacetic acid (EDTA) and heparin-treated tubes, and urine (up to 5 ml) was collected by cystocentesis or from the floor of the runs. The laboratory evaluation consisted of a complete blood count (CBC), serum chemistry profile, and complete urinalysis. The CBC evaluated total white blood cells (WBC) and hematocrit (HCT), in addition to absolute numbers of neutrophils, lymphocytes, monocytes, eosinophils, and platelets. The plasma chemistry profile evaluated blood urea nitrogen (BUN), creatinine, proteins (albumin, globulins, and total proteins), alanine aminotransferase (ALT), total bilirubin, glucose, and electrolytes. The complete urinalysis evaluated urine proteins, glucose, and ketones; a sediment examination and urine-specific gravity were validated as well for any possible signs of renal toxicity of fluorocoxib D. All laboratory tests were carried out at the Veterinary Medical Center of the University of Tennessee in Knoxville.

Compound: COc1ccc2c(c1)c(CC(=O)NCCCCNC(=O)c1ccc(C3=c4cc5c6c(c4Oc4c3cc3c7c4CCCN7CCC3)CCC[N+]=6CCC5)cc1)c(C)n2C(=O)c1ccc(Cl)cc1 [Fluorocoxib D, N -[(rhodamin-X-yl)but-4-yl]-2-[1-(4-chlorobenzoyl)-5-methoxy-2-methyl-1H-indol-3-yl]acetamide]
- Uptake of fluorocoxib D in HNC during rhinoscopy [1]: uptake was detected
- Uptake of fluorocoxib D in HNC during rhinoscopy ([1]; listed as fluorocoxib D): Specific uptake of fluorocoxib D was detected
- Tumor-to-normal tissue ratio (T/N ratio) of fluorocoxib D signal ([1]; 1 mg/kg i.v., canine HNC, ImageJ, normal n=804 and tumor ROI n=866): 3.7±0.9
- PLT EST (platelet estimate), After ([2]; 3 days after single dose 1 mg/kg i.v., dog #3, ADQ = adequate): ADQ
- PLT CNT (platelets counts), After ([2]; 3 days after single dose 1 mg/kg i.v., dog #3, reference range 147 to 423): 241000 µL⁻¹
- Abs BAN (absolute band neutrophils), After ([2]; 3 days after single dose 1 mg/kg i.v., dog #6, reference range 0 to 0.3): 0 µL⁻¹
- Abs EOS (absolute eosinophils), After ([2]; 3 days after single dose 1 mg/kg i.v., individual dogs #1-#6, reference range 0 to 0.85, 1 mg/kg): 240 µL⁻¹ and 360 µL⁻¹ and 140 µL⁻¹ and 200 µL⁻¹ and 180 µL⁻¹ and 170 µL⁻¹
- Abs MON (absolute monocytes), After ([2]; 3 days after single dose 1 mg/kg i.v., individual dogs #1-#6, reference range 0.165 to 0.85, 1 mg/kg): 230 µL⁻¹ and 300 µL⁻¹ and 240 µL⁻¹ and 490 µL⁻¹ and 380 µL⁻¹ and 620 µL⁻¹
- Abs LYM (absolute lymphocytes), After ([2]; 3 days after single dose 1 mg/kg i.v., individual dogs #1-#6, reference range 1.1 to 4.6, 1 mg/kg): 1610 µL⁻¹ and 2050 µL⁻¹ and 2220 µL⁻¹ and 1880 µL⁻¹ and 2300 µL⁻¹
- Abs SEG (absolute segmented neutrophils), After ([2]; 3 days after single dose 1 mg/kg i.v., individual dogs #1-#6, reference range 2.65 to 9.8, 1 mg/kg): 3.22 ×10^3/μl and 2.98 ×10^3/μl and 4 ×10^3/μl and 4.72 ×10^3/μl and 5.07 ×10^3/μl and 2.4 L ×10^3/μl
- WBC (white blood cells), After ([2]; 3 days after single dose 1 mg/kg i.v., individual dogs #1-#6, reference range 5.1 to 14, 1 mg/kg): 5.3 ×10^3/μl (2×) and 5.7 ×10^3/μl and 6.6 ×10^3/μl and 7.3 ×10^3/μl and 7.8 ×10^3/μl
- HCT (hematocrit), After ([2]; 3 days after single dose 1 mg/kg i.v., individual dogs #1-#6, reference range 41 to 60, 1 mg/kg): 45.2% and 47.2% (2×) and 45.6% and 47% and 48.1%
- Neutrophil finding 3 days after administration ([2]; dog #6, remained afebrile and clinically normal, cause uncertain): mild neutropenia
